Source: patent US20250161216A1, “CATIONIC LIPID ANALOGUES, COMPOSITIONS AND USES THEREOF” (GUANGZHOU LIDE BIOMEDICINE TECHNOLOGY CO., LTD., priority 2022, published 2025)

Assays:
C57BL/6 mice [1] = assay: In vivo expression level of Luciferase-mRNA delivered by intravenous injection (bioluminescence imaging); details: mRNA-loaded nanoparticles, intravenous (tail vein), 5 μg Luciferase-mRNA, 6 hours; for Fluorescence intensity of liver / Bioluminescence intensity: compounds of Example 1
How it was run: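 Lipid nanoparticles carrying 5 μg Luciferase-mRNA given by tail-vein injection to 6-8-week-old C57BL/6 mice. At 6 h, 3 mg D-luciferin i.p. in PBS; bioluminescence imaged 10 min later as the expression read-out.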

C57BL/6 mice [2] = assay: In vivo expression level of Luciferase-mRNA delivered by intramuscular injection (bioluminescence imaging); details: mRNA-loaded nanoparticles, intramuscular (leg muscle), 5 μg Luciferase-mRNA, 6 hours
Procedure: Luciferase-mRNA was used as an mRNA model; and the cationic lipid analogues of Examples 1-5 were used to prepare drug-loaded nanoparticles according to the method of Example 6.
100 μL of nanoparticles containing 5 μg Luciferase-mRNA or the drug-loaded nanoparticles prepared above were injected into the leg muscles of 6-8 week-old C57BL/6 mice, and 200 μL of 1×PBS solution containing 3 mg D-Luciferin potassium salt was intraperitoneally injected into the mice 6 hours later. After waiting for 10 minutes, an in vivo expression level of the mRNA was evaluated by bioluminescence imaging.

Row | Compound | Fluorescence intensity of spleen (C57BL/6 mice [1]; compounds of Example 3) | Local fluorescence intensity (C57BL/6 mice [2]; compounds of Example 3) | Local fluorescence intensity (C57BL/6 mice [2]; compounds of Example 1) | Local fluorescence intensity (C57BL/6 mice [2]; compounds of Example 2) | also measured
1 | CCCCCCCCCCSSCCC(=O)N(CC(OC)OC)C(C(=O)NCCN(CCNC(=O)C(C(C)C)N(CC(OC)OC)C(=O)CCSSCCCCCCCCCC)CCNC(=O)C(C(C)C)N(CC(OC)OC)C(=O)CCSSCCCCCCCCCC)C(C)C (stereo not shown) [A1I5R34S15] | 2.84E+05 | 1.24E+06 | – | – | –
2 | CCCCC/C=C\C/C=C\CCCCCCCC(=O)N(CCCN(C)C)C(C(=O)NCCCCCCCCCCCCCCCCCC)C1CCCCC1 (stereo not shown) [A23I18R2C18-2] | – | – | 7.16E+05 | – | Fluorescence intensity of liver (C57BL/6 mice [1]): 1.52E+06
3 | CCCCC/C=C\C/C=C\CCCCCCCC(=O)N(CCN(C)C)C(C(=O)NCCCCCCCCCCCCCCCCCC)C(CC)CCCC (stereo not shown) [A4I18R1C18-2] | – | – | 2.11E+07 | – | Fluorescence intensity of liver (C57BL/6 mice [1]): 9.67E+06
4 | CCCCC/C=C\C/C=C\CCCCCCCC(=O)N(CCCN1CCOCC1)C(C(=O)NCCCCCCCCCCCCCCCCCC)C(CC)CCCC (stereo not shown) [A4I18R5C18-2] | – | – | 4.99E+05 | – | Fluorescence intensity of liver (C57BL/6 mice [1]): 8.34E+03
5 | CCCCC/C=C\C/C=C\CCCCCCCC(=O)N(CCCN(C)C)C(C(=O)NCCCCCCCCCCCCCCCCCC)C(C)C (stereo not shown) [A1I18R2C18-2] | – | – | 7.88E+04 | – | Fluorescence intensity of liver (C57BL/6 mice [1]): 5.42E+04
6 | CCCCCCCCCCSSCCC(=O)N(CCCC(=O)OCC)C(C(=O)NCCN(CCNC(=O)C(C(C)C)N(CCCC(=O)OCC)C(=O)CCSSCCCCCCCCCC)CCNC(=O)C(C(C)C)N(CCCC(=O)OCC)C(=O)CCSSCCCCCCCCCC)C(C)C (stereo not shown) [A1I5R39S15] | 3.88E+04 | 2.15E+04 | – | – | –
7 | CCCCC/C=C\C/C=C\CCCCCCCC(=O)N(CCOC)C(C(=O)NCCN(C)CCNC(=O)C(C(CC)CCCC)N(CCOC)C(=O)CCCCCCC/C=C\C/C=C\CCCCC)C(CC)CCCC (stereo not shown) [A4I4R23C18-2] | – | – | – | 1.93E+04 | Fluorescence intensity of spleen (C57BL/6 mice [1]; compounds of Example 2): 4.96E+05
8 | CCCCCCCCCCSSCCC(=O)N(CCCCCCO)C(C(=O)NCCN(CCNC(=O)C(C(C)C)N(CCCCCCO)C(=O)CCSSCCCCCCCCCC)CCNC(=O)C(C(C)C)N(CCCCCCO)C(=O)CCSSCCCCCCCCCC)C(C)C (stereo not shown) [A1I5R28S15] | 3.31E+06 | 6.01E+05 | – | – | –
9 | CCCCCCCCCCSSCCC(=O)N(CCCOC(C)C)C(C(=O)NCCN(CCNC(=O)C(C(C)C)N(CCCOC(C)C)C(=O)CCSSCCCCCCCCCC)CCNC(=O)C(C(C)C)N(CCCOC(C)C)C(=O)CCSSCCCCCCCCCC)C(C)C (stereo not shown) [A1I5R32S15] | 2.48E+05 | 1.18E+06 | – | – | –
10 | CCCCC/C=C\C/C=C\CCCCCCCC(=O)N(CCN1CCCCC1)C(C(=O)NCCCCCCCCCCCCCCCCCC)C(C)C (stereo not shown) [A1I18R12C18-2] | – | – | 3.38E+06 | – | Fluorescence intensity of liver (C57BL/6 mice [1]): 1.41E+03
11 | CCCCC/C=C\C/C=C\CCCCCCCC(=O)N(CCO)C(C(=O)NCCN(C)CCNC(=O)C(C(CC)CCCC)N(CCO)C(=O)CCCCCCC/C=C\C/C=C\CCCCC)C(CC)CCCC (stereo not shown) [A4I4R22C18-2] | – | – | – | 4.66E+05 | Fluorescence intensity of spleen (C57BL/6 mice [1]; compounds of Example 2): 2.61E+05
12 | CCCCCCCC/C=C\CCCCCCCC(=O)N(CCCN(C)C)C(C(=O)NCCCCCCCCCCCCCCCCCC)C(CC)CCCC (stereo not shown) [A4I18R2C18-1] | – | – | 1.32E+07 | – | Bioluminescence intensity (C57BL/6 mice [1]): 1.33E+07
13 | CCCCCCCCCCSSCCC(=O)N(C(C(=O)NCCN(CCNC(=O)C(C(C)C)N(C(=O)CCSSCCCCCCCCCC)C(C)(CO)CO)CCNC(=O)C(C(C)C)N(C(=O)CCSSCCCCCCCCCC)C(C)(CO)CO)C(C)C)C(C)(CO)CO (stereo not shown) [A1I5R29S15] | 3.13E+05 | 7.63E+04 | – | – | –
14 | CCCCCCCCSSCCC(=O)N(CCO)C(C(=O)NCCN(CCNC(=O)C(C(C)C)N(CCO)C(=O)CCSSCCCCCCCC)CCNC(=O)C(C(C)C)N(CCO)C(=O)CCSSCCCCCCCC)C(C)C (stereo not shown) [A1I5R22S13] | 1.60E+06 | 5.74E+05 | – | – | –
15 | CCCCCCCCCCCCCC(=O)N(CCO)C(C(=O)NCCN(CCNC(=O)C(C(C)C)N(CCO)C(=O)CCCCCCCCCCCCC)CCNC(=O)C(C(C)C)N(CCO)C(=O)CCCCCCCCCCCCC)C(C)C (stereo not shown) [A1I5R22C14] | 1.20E+06 | 1.08E+05 | – | – | –
16 | CCCCCCCC/C=C\CCCCCCCC(=O)N(CCCN(CC)CC)C(C(=O)NCCCCCCCCCCCCCCCCCC)C(CC)CCCC (stereo not shown) [A4I18R3C18-1] | – | – | 1.77E+07 | – | Bioluminescence intensity (C57BL/6 mice [1]): 1.39E+07
17 | CCCCCCCCCCCCCCCCCCNC(=O)C(C1CCCCC1)N(CCCN1CCOCC1)C(=O)CCCCCCCCCCCCCCCCC (stereo not shown) [A23I18R5C18] | – | – | 9.13E+04 | – | Fluorescence intensity of liver (C57BL/6 mice [1]): 1.85E+03
18 | CCCCCCCCCCSSCCC(=O)N(CC1CCCO1)C(C(=O)NCCN(CCNC(=O)C(C(C)C)N(CC1CCCO1)C(=O)CCSSCCCCCCCCCC)CCNC(=O)C(C(C)C)N(CC1CCCO1)C(=O)CCSSCCCCCCCCCC)C(C)C (stereo not shown) [A1I5R35S15] | 3.21E+05 | 2.62E+06 | – | – | –

Row | Compound | Fluorescence intensity of spleen (C57BL/6 mice [1]; compounds of Example 3) | Local fluorescence intensity (C57BL/6 mice [2]; compounds of Example 3) | Local fluorescence intensity (C57BL/6 mice [2]; compounds of Example 1) | Local fluorescence intensity (C57BL/6 mice [2]; compounds of Example 2) | also measured
19 | CCCCCCCCCCCCCCCCCCNC(=O)C(C1CCCCC1)N(CCCN(C)C)C(=O)CCCCCCCCCCCCCCCCC (stereo not shown) [A23I18R2C18] | – | – | 4.83E+04 | – | Fluorescence intensity of liver (C57BL/6 mice [1]): 3.87E+05
20 | CCCCCCCCCCCCCCCCCCNC(=O)C(C(CC)CCCC)N(CCCN1CCOCC1)C(=O)CCCCCCCCCCCCCCCCC (stereo not shown) [A4I18R5C18] | – | – | 4.33E+05 | – | Fluorescence intensity of liver (C57BL/6 mice [1]): 2.68E+03
21 | CCCCC/C=C\C/C=C\CCCCCCCC(=O)N(CCO)C(C(=O)NCCN(C)CCNC(=O)C(C1CCCCC1)N(CCO)C(=O)CCCCCCC/C=C\C/C=C\CCCCC)C1CCCCC1 (stereo not shown) [A23I4R22C18-2] | – | – | – | 9.09E+05 | Fluorescence intensity of spleen (C57BL/6 mice [1]; compounds of Example 2): 6.10E+05
22 | CCCCCCCCCCSSCCC(=O)N(CC(=O)OCC)C(C(=O)NCCN(CCNC(=O)C(C(C)C)N(CC(=O)OCC)C(=O)CCSSCCCCCCCCCC)CCNC(=O)C(C(C)C)N(CC(=O)OCC)C(=O)CCSSCCCCCCCCCC)C(C)C (stereo not shown) [A1I5R37S15] | 1.61E+05 | 1.26E+06 | – | – | –
23 | CCCCCCCC/C=C\CCCCCCCC(=O)N(CCO)C(C(=O)NCCN(C)CCNC(=O)C(C(C)C)N(CCO)C(=O)CCCCCCC/C=C\CCCCCCCC)C(C)C (stereo not shown) [A1I4R22C18-1] | – | – | – | 2.86E+04 | Fluorescence intensity of spleen (C57BL/6 mice [1]; compounds of Example 2): 3.18E+05
24 | CCCCCCCCCCCCNC(=O)C(C(C)C)N(CCN(CCN(C(=O)CO)C(C(=O)NCCCCCCCCCCCC)C(C)C)CCN(C(=O)CO)C(C(=O)NCCCCCCCCCCCC)C(C)C)C(=O)CO (stereo not shown) [A1I12R47C21] | – | – | – | – | Fluorescence intensity of spleen (C57BL/6 mice [1]; compounds of Example 5): 3.10E+05; Local fluorescence intensity (C57BL/6 mice [2]; compounds of Example 5): 2.22E+05
25 | CCCCC/C=C\C/C=C\CCCCCCCC(=O)N(CCOC)C(C(=O)NCCN(C)CCNC(=O)C(C(C)C)N(CCOC)C(=O)CCCCCCC/C=C\C/C=C\CCCCC)C(C)C (stereo not shown) [A1I4R23C18-2] | – | – | – | 8.72E+05 | Fluorescence intensity of spleen (C57BL/6 mice [1]; compounds of Example 2): 9.64E+05
26 | CCCCCCCCCCSSCCC(=O)N(CCCOCC)C(C(=O)NCCN(CCNC(=O)C(C(C)C)N(CCCOCC)C(=O)CCSSCCCCCCCCCC)CCNC(=O)C(C(C)C)N(CCCOCC)C(=O)CCSSCCCCCCCCCC)C(C)C (stereo not shown) [A1I5R31S15] | 6.13E+05 | 2.94E+06 | – | – | –
27 | CCCCCCCC/C=C\CCCCCCCC(=O)N(CCO)C(C(=O)NCCN(C)CCNC(=O)C(C(CC)CCCC)N(CCO)C(=O)CCCCCCC/C=C\CCCCCCCC)C(CC)CCCC (stereo not shown) [A4I4R22C18-1] | – | – | – | 5.47E+05 | Fluorescence intensity of spleen (C57BL/6 mice [1]; compounds of Example 2): 6.82E+05
28 | CCCCCCCCCCSSCCC(=O)N(C(CC)COC)C(C(=O)NCCN(CCNC(=O)C(C(C)C)N(C(=O)CCSSCCCCCCCCCC)C(CC)COC)CCNC(=O)C(C(C)C)N(C(=O)CCSSCCCCCCCCCC)C(CC)COC)C(C)C (stereo not shown) [A1I5R33S15] | 2.33E+05 | 1.52E+06 | – | – | –
29 | CCCCCCCCCCCCCCCCCCNC(=O)C(C(C)C)N(CCCN1CCOCC1)C(=O)CCCCCCCCCCCCCCCCC (stereo not shown) [A1I18R5C18] | – | – | 5.25E+04 | – | Fluorescence intensity of liver (C57BL/6 mice [1]): 1.16E+03
30 | CCCC/C=C\C/C=C\CCCCCCCC(=O)N(CC1CCCO1)C(C(=O)NCCN(C)CCNC(=O)C(C(C)C)N(CC1CCCO1)C(=O)CCCCCCC/C=C\C/C=C\CCCCC)C(C)C (stereo not shown) [A1I4R35C18-2] | – | – | – | 3.38E+05 | –
31 | CCCC/C=C\C/C=C\CCCCCCCC(=O)N(CCOCCO)C(C(=O)NCCN(C)CCNC(=O)C(C(C)C)N(CCOCCO)C(=O)CCCCCCC/C=C\C/C=C\CCCCC)C(C)C (stereo not shown) [A1I4R36C18-2] | – | – | – | 5.68E+04 | –
32 | CCCC/C=C\C/C=C\CCCCCCCC(=O)N(CC(OC)OC)C(C(=O)NCCN(C)CCNC(=O)C(C(C)C)N(CC(OC)OC)C(=O)CCCCCCC/C=C\C/C=C\CCCCC)C(C)C (stereo not shown) [A1I4R34C18-2] | – | – | – | 5.58E+05 | –
33 | CCCC/C=C\C/C=C\CCCCCCCC(=O)N(CCCOC)C(C(=O)NCCN(C)CCNC(=O)C(C(C)C)N(CCCOC)C(=O)CCCCCCC/C=C\C/C=C\CCCCC)C(C)C (stereo not shown) [A1I4R43C18-2] | – | – | – | 6.57E+04 | –
34 | CCCCC/C=C\C/C=C\CCCCCCCC(=O)N(CC1CCOCC1)C(C(=O)NCCN(C)CCNC(=O)C(C(C)C)N(CC1CCOCC1)C(=O)CCCCCCC/C=C\C/C=C\CCCCC)C(C)C (stereo not shown) [A1I4R48C18-2] | – | – | – | 8.55E+04 | –
35 | CCCC/C=C\C/C=C\CCCCCCCC(=O)N(C(CC)COC)C(C(=O)NCCN(C)CCNC(=O)C(C(C)C)N(C(=O)CCCCCCC/C=C\C/C=C\CCCCC)C(CC)COC)C(C)C (stereo not shown) [A1I4R33C18-2] | – | – | – | 1.02E+05 | –
